{"source": "patent US20250057426A1", "about": "“COMPUTER-IMPLEMENTED METHODS AND ASSOCIATED SYSTEMS FOR DETECTING MALIGNANCY” (The Trustees of the University of Pennsylvania, priority 2021, published 2025)", "tested_on": "pulmonary lesions", "experiment": "Tumor-to-background ratio (TBR) during OTL38-based intraoperative molecular imaging (IMI)-guided lung resection", "format": "in vivo, patients", "conditions": "OTL38 0.025 mg/kg infused up to 24 h prior to surgery", "experimental": "Appropriate authorization was obtained from the University of Pennsylvania Perelman School of Medicine Institutional Review Board prior to data collection. Data was retrospectively analyzed from a prospectively collected database. Surgical procedures were performed by the surgeons at the Department of Thoracic Surgery at the Hospital of the University of Pennsylvania. A total of 279 patients were included in the study. All patients enrolled in the study presented with suspicious pulmonary nodules in conjunction with the recommendations from the Fleischner Society Guidelines for Pulmonary Nodules based on high-quality 1 mm slice thickness CT scanning. Based on institutional practice patterns, pre-operative tissue sampling and diagnosis was not mandatory. Selected patients underwent appropriate pre-operative clearance and metastatic disease work up prior to operative scheduling with video-assisted thoracoscopic surgical (VATS) lobectomy being the procedure of choice.\nAnalyzed patients underwent infusion of the study drug OTL38 (0.025 mg/kg) up to 24 h prior to surgery. OTL38 (C61H63N9Na4O17S4, MW: 1414.42) is a folate analog conjugated to the NIR dye, S0456. OTL38 excites at 774-776 nm and emits at 794-796 nm. […] The iridium system utilizes an excitation laser with a wavelength of 805 nm, with fluorescence detection based on a bandpass filter selective to light ranging from 825 to 850 nm. […]\nPostoperatively, all the IMI images were uploaded to the deidentified secure database for analysis. Mean fluorescence intensity of the tumors was calculated from ImageJ (from National Institutes of Health) software with minimum 1000 pixels being included in the analysis. To minimize inter-observer bias, a protocol was established where the in situ and ex vivo TBRs were calculated by three blinded independent observers. Results were re-calculated by different observers if at least two blinded observer TBR measurements were not correlating (TBR values ±0.2 from each other). TBR results were then compared to final pathological diagnosis and analyzed for their correlation with in situ fluorescence. […]"}
{"smiles": "CC1(C)C(/C=C/C2=C(Oc3ccc(C[C@H](NC(=O)c4ccc(NCc5cnc6nc(N)[nH]c(=O)c6n5)cc4)C(=O)[O-])cc3)C(=C/C=C3\\N(CCCCS(=O)(=O)[O-])c4ccc(S(=O)(=O)[O-])cc4C3(C)C)/CCC2)=[N+](CCCCS(=O)(=O)[O-])c2ccc(S(=O)(=O)[O-])cc21.[H+].[H+].[H+].[H+]", "note": "[OTL38]", "values": [{"measurement": "In situ TBR, mean", "setting": "entire cohort of 279 patients, Iridium NIR imaging, ImageJ", "result": 2.84}, {"measurement": "Ex vivo TBR bisected tumor, mean", "setting": "entire cohort, bisected specimen, 0.025 mg/kg", "result": 4}, {"measurement": "Ex vivo TBR (back table), mean", "setting": "entire cohort, resected specimen", "result": 3.09}]}
